ChEMBL document CHEMBL1932988, “Synthesis, antimicrobial, anticancer evaluation and QSAR studies of 6-methyl-4-[1-(2-substituted-phenylamino-acetyl)-1H-indol-3-yl]-2-oxo/thioxo-1,2,3,4-tetrahydropyrimidine-5-carboxylic acid ethyl esters” (Eur J Med Chem, 2012)
In brackets after ≈: the same amount, converted by molar mass.

System: Aspergillus niger
Assay: Antifungal activity against Aspergillus niger MTCC 8189 after 7 days by tube dilution method hrs followed by subculturing
Format: functional
Details: not given
With `CCOC(=O)C1=C(C)NC(=O)NC1c1cn(C(=O)CNc2ccc(Cl)cc2)c2ccccc12` (stereo unspecified) the MFC was greater than 0.11 uM/ml. For `CCOC(=O)C1=C(C)NC(=S)NC1c1cn(C(=O)CNc2ccc([N+](=O)[O-])cc2)c2ccccc12` (stereo unspecified), the MFC was greater than 0.1 uM/ml. With `CCOC(=O)C1=C(C)NC(=S)NC1c1cn(C(=O)CNc2ccccc2N)c2ccccc12` (stereo unspecified) the MFC was 0.11 uM/ml. In the case of `OC(Cn1cncn1)(Cn1cncn1)c1ccc(F)cc1F` [FLUCONAZOLE], the MFC is reported as 0.04 uM/ml.

System: Bacillus subtilis
Assay: Antibacterial activity against Bacillus subtilis MTCC 2063 after 24 hrs by tube dilution method
Format: functional
Details: not given
For `CCOC(=O)C1=C(C)NC(=O)NC1c1cn(C(=O)CNc2ccc(Cl)cc2)c2ccccc12` (stereo unspecified), the “-logMIC” value was 1.27. With `CCOC(=O)C1=C(C)NC(=S)NC1c1cn(C(=O)CNc2ccc([N+](=O)[O-])cc2)c2ccccc12` (stereo unspecified) the “-logMIC” value was 1.6. For `CCOC(=O)C1=C(C)NC(=S)NC1c1cn(C(=O)CNc2ccccc2N)c2ccccc12` (stereo unspecified), the “-logMIC” value was 1.57. For `CCn1cc(C(=O)O)c(=O)c2cc(F)c(N3CCNCC3)cc21` [NORFLOXACIN], the “-logMIC” value was 2.61.

System: Staphylococcus aureus
Assay: Ratio of MIC to MBC for Staphylococcus aureus MTCC 2901
Format: functional
Details: not given
For `CCOC(=O)C1=C(C)NC(=O)NC1c1cn(C(=O)CNc2ccc(Cl)cc2)c2ccccc12` (stereo unspecified), the Ratio was 3. With `CCOC(=O)C1=C(C)NC(=S)NC1c1cn(C(=O)CNc2ccc([N+](=O)[O-])cc2)c2ccccc12` (stereo unspecified) the Ratio was 3. In the case of `CCOC(=O)C1=C(C)NC(=S)NC1c1cn(C(=O)CNc2ccccc2N)c2ccccc12` (stereo unspecified), the Ratio is reported as 3.

System: Candida albicans
Assay: Antifungal activity against Candida albicans MTCC 227 after 48 hrs by tube dilution method
Format: functional
Details: not given
With `CCOC(=O)C1=C(C)NC(=O)NC1c1cn(C(=O)CNc2ccc(Cl)cc2)c2ccccc12` (stereo unspecified) the “-logMIC” value was 1.57. In the case of `CCOC(=O)C1=C(C)NC(=S)NC1c1cn(C(=O)CNc2ccc([N+](=O)[O-])cc2)c2ccccc12` (stereo unspecified), the “-logMIC” value is reported as 1.9. With `CCOC(=O)C1=C(C)NC(=S)NC1c1cn(C(=O)CNc2ccccc2N)c2ccccc12` (stereo unspecified) the “-logMIC” value was 1.57. With `OC(Cn1cncn1)(Cn1cncn1)c1ccc(F)cc1F` [FLUCONAZOLE] the “-logMIC” value was 2.64.

System: Escherichia coli
Assay: Antibacterial activity against Escherichia coli MTCC 1652 after 24 hrs by tube dilution method hrs followed by subculturing
Format: functional
Details: not given
With `CCOC(=O)C1=C(C)NC(=O)NC1c1cn(C(=O)CNc2ccc(Cl)cc2)c2ccccc12` (stereo unspecified) the MBC was greater than 0.11 uM/ml. `CCOC(=O)C1=C(C)NC(=S)NC1c1cn(C(=O)CNc2ccc([N+](=O)[O-])cc2)c2ccccc12` (stereo unspecified) showed an MBC of 0.03 uM/ml. With `CCOC(=O)C1=C(C)NC(=S)NC1c1cn(C(=O)CNc2ccccc2N)c2ccccc12` (stereo unspecified) the MBC was 0.05 uM/ml. `CCn1cc(C(=O)O)c(=O)c2cc(F)c(N3CCNCC3)cc21` [NORFLOXACIN] gave an MBC of 0.019 uM/ml.

System: Bacillus subtilis
Assay: Antibacterial activity against Bacillus subtilis MTCC 2063 after 24 hrs by tube dilution method hrs followed by subculturing
Format: functional
Details: not given
In the case of `CCOC(=O)C1=C(C)NC(=O)NC1c1cn(C(=O)CNc2ccc(Cl)cc2)c2ccccc12` (stereo unspecified), the MBC is reported as greater than 0.11 uM/ml. For `CCOC(=O)C1=C(C)NC(=S)NC1c1cn(C(=O)CNc2ccc([N+](=O)[O-])cc2)c2ccccc12` (stereo unspecified), the MBC was greater than 0.1 uM/ml. Compound `CCOC(=O)C1=C(C)NC(=S)NC1c1cn(C(=O)CNc2ccccc2N)c2ccccc12` (stereo unspecified) has an MBC greater than 0.11 uM/ml. For `CCn1cc(C(=O)O)c(=O)c2cc(F)c(N3CCNCC3)cc21` [NORFLOXACIN], the MBC was 0.019 uM/ml.

System: Candida albicans
Assay: Antifungal activity against Candida albicans MTCC 227 after 48 hrs by tube dilution method hrs followed by subculturing
Format: functional
Details: not given
With `CCOC(=O)C1=C(C)NC(=O)NC1c1cn(C(=O)CNc2ccc(Cl)cc2)c2ccccc12` (stereo unspecified) the MFC was greater than 0.11 uM/ml. `CCOC(=O)C1=C(C)NC(=S)NC1c1cn(C(=O)CNc2ccc([N+](=O)[O-])cc2)c2ccccc12` (stereo unspecified) gave an MFC of 0.1 uM/ml. Work on `CCOC(=O)C1=C(C)NC(=S)NC1c1cn(C(=O)CNc2ccccc2N)c2ccccc12` (stereo unspecified) yielded an MFC greater than 0.11 uM/ml. `OC(Cn1cncn1)(Cn1cncn1)c1ccc(F)cc1F` [FLUCONAZOLE] gave an MFC of 0.04 uM/ml.

System: MCF7
Assay: cells
Details: Homo sapiens, MCF7, 72 h
Description: Cytotoxicity against human MCF7 cells after 72 hrs by MTT assay
In the case of `CCOC(=O)C1=C(C)NC(=O)NC1c1cn(C(=O)CNc2ccc(Cl)cc2)c2ccccc12` (stereo unspecified), the IC50 is reported as 200 µg/mL (≈ 428 µM). In the case of `CCOC(=O)C1=C(C)NC(=S)NC1c1cn(C(=O)CNc2ccc([N+](=O)[O-])cc2)c2ccccc12` (stereo unspecified), the IC50 is reported as greater than 1000 µg/mL. For `CCOC(=O)C1=C(C)NC(=S)NC1c1cn(C(=O)CNc2ccccc2N)c2ccccc12` (stereo unspecified), the IC50 was 100 µg/mL (≈ 216 µM).

System: Candida albicans
Assay: Ratio of MIC to MFC for Candida albicans MTCC 227
Format: functional
Details: not given
For `CCOC(=O)C1=C(C)NC(=O)NC1c1cn(C(=O)CNc2ccc(Cl)cc2)c2ccccc12` (stereo unspecified), the Ratio was 3. Work on `CCOC(=O)C1=C(C)NC(=S)NC1c1cn(C(=O)CNc2ccc([N+](=O)[O-])cc2)c2ccccc12` (stereo unspecified) yielded a Ratio of 3. Compound `CCOC(=O)C1=C(C)NC(=S)NC1c1cn(C(=O)CNc2ccccc2N)c2ccccc12` (stereo unspecified) has a Ratio of 3.

System: Aspergillus niger
Assay: Ratio of MIC to MFC for Aspergillus niger MTCC 8189
Format: functional
Details: not given
Work on `CCOC(=O)C1=C(C)NC(=O)NC1c1cn(C(=O)CNc2ccc(Cl)cc2)c2ccccc12` (stereo unspecified) yielded a Ratio of 3. Work on `CCOC(=O)C1=C(C)NC(=S)NC1c1cn(C(=O)CNc2ccc([N+](=O)[O-])cc2)c2ccccc12` (stereo unspecified) yielded a Ratio of 3. Work on `CCOC(=O)C1=C(C)NC(=S)NC1c1cn(C(=O)CNc2ccccc2N)c2ccccc12` (stereo unspecified) yielded a Ratio of 3.

System: Aspergillus niger
Assay: Antifungal activity against Aspergillus niger MTCC 8189 after 7 days by tube dilution method
Format: functional
Details: not given
In the case of `CCOC(=O)C1=C(C)NC(=O)NC1c1cn(C(=O)CNc2ccc(Cl)cc2)c2ccccc12` (stereo unspecified), the “-logMIC” value is reported as 1.57. In the case of `CCOC(=O)C1=C(C)NC(=S)NC1c1cn(C(=O)CNc2ccc([N+](=O)[O-])cc2)c2ccccc12` (stereo unspecified), the “-logMIC” value is reported as 1.6. In the case of `CCOC(=O)C1=C(C)NC(=S)NC1c1cn(C(=O)CNc2ccccc2N)c2ccccc12` (stereo unspecified), the “-logMIC” value is reported as 1.57. For `OC(Cn1cncn1)(Cn1cncn1)c1ccc(F)cc1F` [FLUCONAZOLE], the “-logMIC” value was 2.64.

System: not listed separately
Assay: Partition coefficient, log P of the compound
Format: physicochemical
Details: octanol/water
Compound `CCOC(=O)C1=C(C)NC(=O)NC1c1cn(C(=O)CNc2ccc(Cl)cc2)c2ccccc12` (stereo unspecified) has a logP of 2.04. In the case of `CCOC(=O)C1=C(C)NC(=S)NC1c1cn(C(=O)CNc2ccc([N+](=O)[O-])cc2)c2ccccc12` (stereo unspecified), the logP is reported as 2.88. Compound `CCOC(=O)C1=C(C)NC(=S)NC1c1cn(C(=O)CNc2ccccc2N)c2ccccc12` (stereo unspecified) has a logP of 2.14.

System: Escherichia coli
Assay: Ratio of MIC to MBC for Escherichia coli MTCC 1652
Format: functional
Details: not given
In the case of `CCOC(=O)C1=C(C)NC(=O)NC1c1cn(C(=O)CNc2ccc(Cl)cc2)c2ccccc12` (stereo unspecified), the Ratio is reported as 3. With `CCOC(=O)C1=C(C)NC(=S)NC1c1cn(C(=O)CNc2ccc([N+](=O)[O-])cc2)c2ccccc12` (stereo unspecified) the Ratio was 3. With `CCOC(=O)C1=C(C)NC(=S)NC1c1cn(C(=O)CNc2ccccc2N)c2ccccc12` (stereo unspecified) the Ratio was 3.

System: Escherichia coli
Assay: Antibacterial activity against Escherichia coli MTCC 1652 after 24 hrs by tube dilution method
Format: functional
Details: not given
With `CCOC(=O)C1=C(C)NC(=O)NC1c1cn(C(=O)CNc2ccc(Cl)cc2)c2ccccc12` (stereo unspecified) the “-logMIC” value was 1.27. With `CCOC(=O)C1=C(C)NC(=S)NC1c1cn(C(=O)CNc2ccc([N+](=O)[O-])cc2)c2ccccc12` (stereo unspecified) the “-logMIC” value was 2.5. In the case of `CCOC(=O)C1=C(C)NC(=S)NC1c1cn(C(=O)CNc2ccccc2N)c2ccccc12` (stereo unspecified), the “-logMIC” value is reported as 2.17. In the case of `CCn1cc(C(=O)O)c(=O)c2cc(F)c(N3CCNCC3)cc21` [NORFLOXACIN], the “-logMIC” value is reported as 2.61.

System: Staphylococcus aureus
Assay: Antibacterial activity against Staphylococcus aureus MTCC 2901 after 24 hrs by tube dilution method
Format: functional
Details: not given
With `CCOC(=O)C1=C(C)NC(=O)NC1c1cn(C(=O)CNc2ccc(Cl)cc2)c2ccccc12` (stereo unspecified) the “-logMIC” value was 1.57. With `CCOC(=O)C1=C(C)NC(=S)NC1c1cn(C(=O)CNc2ccc([N+](=O)[O-])cc2)c2ccccc12` (stereo unspecified) the “-logMIC” value was 1.6. For `CCOC(=O)C1=C(C)NC(=S)NC1c1cn(C(=O)CNc2ccccc2N)c2ccccc12` (stereo unspecified), the “-logMIC” value was 1.87. With `CCn1cc(C(=O)O)c(=O)c2cc(F)c(N3CCNCC3)cc21` [NORFLOXACIN] the “-logMIC” value was 2.61.

System: Staphylococcus aureus
Assay: Antibacterial activity against Staphylococcus aureus MTCC 2901 after 24 hrs followed by subculturing
Format: functional
Details: not given
In the case of `CCOC(=O)C1=C(C)NC(=O)NC1c1cn(C(=O)CNc2ccc(Cl)cc2)c2ccccc12` (stereo unspecified), the MBC is reported as greater than 0.11 uM/ml. In the case of `CCOC(=O)C1=C(C)NC(=S)NC1c1cn(C(=O)CNc2ccc([N+](=O)[O-])cc2)c2ccccc12` (stereo unspecified), the MBC is reported as greater than 0.1 uM/ml. Compound `CCOC(=O)C1=C(C)NC(=S)NC1c1cn(C(=O)CNc2ccccc2N)c2ccccc12` (stereo unspecified) has an MBC of 0.11 uM/ml. Work on `CCn1cc(C(=O)O)c(=O)c2cc(F)c(N3CCNCC3)cc21` [NORFLOXACIN] yielded an MBC of 0.019 uM/ml.

System: Bacillus subtilis
Assay: Ratio of MIC to MBC for Bacillus subtilis MTCC 2063
Format: functional
Details: not given
For `CCOC(=O)C1=C(C)NC(=O)NC1c1cn(C(=O)CNc2ccc(Cl)cc2)c2ccccc12` (stereo unspecified), the Ratio was 3. `CCOC(=O)C1=C(C)NC(=S)NC1c1cn(C(=O)CNc2ccc([N+](=O)[O-])cc2)c2ccccc12` (stereo unspecified) gave a Ratio of 3. For `CCOC(=O)C1=C(C)NC(=S)NC1c1cn(C(=O)CNc2ccccc2N)c2ccccc12` (stereo unspecified), the Ratio was 3.
